ChEMBL document CHEMBL3390839, “Triazolopyrimidinones as -secretase modulators: structureactivity relationship, modulator profile, and in vivo profiling” (Medchemcomm, 2013)
≈ marks a conversion by molar mass, not a printed value. Calls of active or inactive are those of the source. The rule behind the calls is not given here.

Experiments:
[1] = Solubility of the compound; assay type: physicochemical
[2] = tested on: Liver microsome; assay: Intrinsic clearance in human liver microsomes measured pre ug of protein; assay type: ADME
[3] = Inhibition of gamma-secretase in mouse primary cortical neurons cells assessed as amyloid beta42 production after 5 days by ELISA; assay type: cell-based, Cerebral cortex neuron; conditions: for IC50: Mus musculus, Cerebral cortex neuron, 120 h; for pIC50: cerebral cortex neuron
[4] = target: Gamma-secretase; assay: Inhibition of human gamma-secretase in HEK-APPswe cells assessed as amyloid beta42 production by electrochemiluminescence assay; assay type: cell-based
[5] = target: Voltage-gated inwardly rectifying potassium channel KCNH2 (Homo sapiens, UniProt Q12809); assay: Inhibition of human ERG
Chain of Voltage-gated inwardly rectifying potassium channel KCNH2 (Q12809 whole entry): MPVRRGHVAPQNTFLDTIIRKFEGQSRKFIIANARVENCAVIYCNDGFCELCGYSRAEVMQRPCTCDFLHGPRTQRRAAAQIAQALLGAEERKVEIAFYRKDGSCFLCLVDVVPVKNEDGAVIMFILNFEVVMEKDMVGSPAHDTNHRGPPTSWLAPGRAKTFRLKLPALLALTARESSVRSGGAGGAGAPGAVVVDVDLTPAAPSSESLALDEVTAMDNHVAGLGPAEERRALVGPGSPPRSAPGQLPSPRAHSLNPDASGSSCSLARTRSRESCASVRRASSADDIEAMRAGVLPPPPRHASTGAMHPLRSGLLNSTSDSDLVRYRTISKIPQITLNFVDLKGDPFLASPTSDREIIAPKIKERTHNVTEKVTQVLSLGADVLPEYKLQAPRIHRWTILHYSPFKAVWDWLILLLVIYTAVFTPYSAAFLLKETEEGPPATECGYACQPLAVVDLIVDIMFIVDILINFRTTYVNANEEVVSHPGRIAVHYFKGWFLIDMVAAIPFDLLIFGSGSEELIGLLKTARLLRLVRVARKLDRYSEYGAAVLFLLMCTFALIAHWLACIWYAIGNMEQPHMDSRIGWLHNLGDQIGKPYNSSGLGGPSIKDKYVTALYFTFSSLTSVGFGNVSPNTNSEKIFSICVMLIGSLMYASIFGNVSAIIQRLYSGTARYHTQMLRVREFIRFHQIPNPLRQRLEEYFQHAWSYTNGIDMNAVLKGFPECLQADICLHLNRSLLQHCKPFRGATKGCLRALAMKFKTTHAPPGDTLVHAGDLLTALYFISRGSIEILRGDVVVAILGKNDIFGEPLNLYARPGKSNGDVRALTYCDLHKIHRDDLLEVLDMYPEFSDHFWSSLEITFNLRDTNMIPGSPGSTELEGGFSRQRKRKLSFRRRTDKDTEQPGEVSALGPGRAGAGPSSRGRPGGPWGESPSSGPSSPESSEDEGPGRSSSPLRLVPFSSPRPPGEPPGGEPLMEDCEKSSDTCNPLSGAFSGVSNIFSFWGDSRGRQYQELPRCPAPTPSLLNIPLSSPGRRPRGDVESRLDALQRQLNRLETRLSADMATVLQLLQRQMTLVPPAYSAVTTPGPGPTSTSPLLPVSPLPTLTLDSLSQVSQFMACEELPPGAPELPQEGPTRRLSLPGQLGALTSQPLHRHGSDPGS

[6] = Ratio of drug level in brain to plasma in C57BL/6 mouse; assay type: ADME, organism-based; conditions: brain and plasma, read-out: BPR
[7] = Permeability across basolateral to apical side in human Caco2 cells; assay type: ADME, cell-based; conditions: for Papp B→A: Caco-2, read-out: permeability; for permeability: Caco-2
[8] = Permeability across apical to basolateral side in human Caco2 cells; assay type: ADME, cell-based; conditions: for Papp A→B: Caco-2, read-out: permeability; for permeability: Caco-2
[9] = Cmax in C57BL/6 mouse at 10 umol/kg, po; assay type: ADME, organism-based; design: dose 10 umol/kg, route oral; conditions: in vivo
[10] = Tmax in C57BL/6 mouse at 10 umol/kg, po; assay type: ADME, organism-based; conditions: in vivo
[11] = Half life in C57BL/6 mouse at 10 umol/kg, po; assay type: ADME, organism-based; conditions: in vivo
[12] = Clearance in C57BL/6 mouse at 3 umol/kg, iv; assay type: ADME, organism-based; conditions: in vivo
[13] = Oral bioavailability in C57BL/6 mouse at 10 umol/kg; assay type: ADME, organism-based; conditions: in vivo
[14] = Half life in C57BL/6 mouse at 3 umol/kg, iv; assay type: ADME, organism-based; conditions: in vivo
[15] = tested on: Mus musculus; assay: Dose normalized AUC in C57BL/6 mouse at 10 umol/kg, po; assay type: ADME, organism-based; conditions: in vivo
[16] = Volume of distribution at steady state in C57BL/6 mouse at 3 umol/kg, iv; assay type: ADME, organism-based; conditions: in vivo, read-out: Vdss
[17] = tested on: Mus musculus; assay: Dose normalized AUC in C57BL/6 mouse at 3 umol/kg, iv; assay type: ADME, organism-based; conditions: in vivo
[18] = target: T1, Gamma-secretase (Homo sapiens) (UniProt Q96BI3+Q9NZ42+Q8WW43+P49768+Q92542+P49810); assay: Inhibition of human gamma-secretase in HEK-APPswe cells assessed as amyloid beta39 production at 10 nM by electrochemiluminescence assay; assay type: cell-based
[19] = target: T1, Gamma-secretase (Homo sapiens); assay: Inhibition of human gamma-secretase in HEK-APPswe cells assessed as amyloid beta38 production at 10 nM by electrochemiluminescence assay; assay type: cell-based
[20] = target: T1, Gamma-secretase (Homo sapiens); assay: Inhibition of human gamma-secretase in HEK-APPswe cells assessed as amyloid beta42 production at 10 nM by electrochemiluminescence assay; assay type: cell-based
[21] = target: T1, Gamma-secretase (Homo sapiens); assay: Inhibition of human gamma-secretase in HEK-APPswe cells assessed as notch processing at 5 uM by electrochemiluminescence assay; assay type: cell-based
[22] = target: T1, Gamma-secretase (Homo sapiens); assay: Inhibition of human gamma-secretase in HEK-APPswe cells assessed as amyloid beta37 production at 10 nM by electrochemiluminescence assay; assay type: cell-based
[23] = target: T1, Gamma-secretase (Homo sapiens); assay: Inhibition of human gamma-secretase in HEK-APPswe cells assessed as amyloid beta40 production at 10 nM by electrochemiluminescence assay; assay type: cell-based
[24] = target: T1, Gamma-secretase (Homo sapiens); assay: Inhibition of human gamma-secretase in HEK-APPswe cells assessed as notch processing at 8 uM by electrochemiluminescence assay; assay type: cell-based

solubility ([1]; read-out: solubility) [µM]	CLH [2] [µL/min]	IC50 [3] [nM]	pIC50 [4]	SMILES	IC50 [5] [nM]	also measured
< 1	70	20	7.7	COc1cc(Nc2nc3n(n2)C(C)CC(=O)N3Cc2cc(F)ccc2F)ccc1-n1cnc(C)c1 (centres undefined)	–	–
< 1	66	–	–	COc1cc(Nc2nc3n(n2)CCC(=O)N3Cc2ccccc2C)ccc1-c1ccc(C)nn1	33000	–
< 1	29	25.1	7.9	COc1cc(Nc2nc3n(n2)C2(CC2)CC(=O)N3Cc2ccc(F)cc2)ccc1-n1cnc(C)c1	–	–
380 (≈ 162 µg/mL)	47	158	–	COc1cc(Nc2nc3n(n2)C(C)CCN3CCC(C)(C)O)ccc1-n1cnc(C)c1 (centres undefined)	32000	–
–	–	–	7	COc1cc(Nc2nc3n(n2)CCCC3c2ccc(F)cc2)ccc1-n1cnc(C)n1 (stereo in doubt; 14B)	–	pIC50 [3]: 6.5
2 (≈ 0.831 µg/mL)	36	251	7.4	COc1cc(Nc2nc3n(n2)CCC(=O)N3c2ccccc2)ccc1-n1cnc(C)c1	33000	–
290 (≈ 125 µg/mL)	19	100	–	COc1cc(Nc2nc3n(n2)CC(O)CN3Cc2ccccc2)ccc1-n1cnc(C)c1 (centres undefined)	28000	–
160 (≈ 71.3 µg/mL)	17	126	–	COc1cc(Nc2nc3n(n2)CC(C)(O)CN3Cc2ccccc2)ccc1-n1cnc(C)c1 (centres undefined)	23000	–
–	73	–	7.7	COc1cc(Nc2nc3n(n2)C(C)CC(=O)N3Cc2ccccc2)ccc1-n1cnc(C)c1 (stereo in doubt; 19A)	–	solubility [1]: 1 µM (≈ 0.444 µg/mL); pIC50 [3]: 6.8
–	–	–	5.8	N#CCc1ccc(Nc2nc3n(n2)CCCC3c2ccc(F)cc2)cc1 (centres undefined)	–	–
2 (≈ 0.951 µg/mL)	50	31.6	7.9	COc1cc(Nc2nc3n(n2)C(C)(C)CC(=O)N3Cc2ccc(F)cc2)ccc1-n1cnc(C)c1	5600	Kp [6]: 0.23
50 (≈ 22.3 µg/mL)	39	–	4.8	COc1cc(Nc2nc3n(n2)CCC(=O)N3Cc2ccccc2C)ccc1-c1noc(C)n1	33000	Papp B→A [7]: 12 ×10⁻⁶ cm/s; Kp [6]: 0.81; Papp A→B [8]: 38 ×10⁻⁶ cm/s
170 (≈ 77.4 µg/mL)	27	–	5	COc1cc(Nc2nc3n(n2)CCC(=O)N3Cc2ccccc2C)ccc1-c1cc(C)cnn1	33000	–
49 (≈ 20.4 µg/mL)	82	100	7.7	COc1cc(Nc2nc3n(n2)CCCN3Cc2ccccc2)ccc1-n1cnc(C)c1	5000	–
< 1	114	39.8	8	COc1cc(Nc2nc3n(n2)CCC(=O)N3Cc2ccccc2C)ccc1-n1cnc(C)c1	13000	–
–	–	–	7.4	COc1cc(Nc2nc3n(n2)CCCC3c2ccc(F)cc2)ccc1-n1cnc(C)n1 (stereo in doubt; 14A)	–	pIC50 [3]: 7
–	19	–	7.3	COc1cc(Nc2nc3n(n2)CCC(=O)N3Cc2ccccc2C(F)(F)F)ccc1-n1cnc(C)n1	33000	permeability [7]: 18 ×10⁻⁶ cm/s; Kp [6]: 0.68; permeability [8]: 45 ×10⁻⁶ cm/s
–	–	–	5.9	Cc1nnc(-c2ccc(Nc3nc4n(n3)CCCC4c3ccc(F)cc3)cc2)o1 (centres undefined)	–	–
–	–	50.1	7.6	COc1cc(Nc2nc3n(n2)CCCC3c2ccccc2)ccc1-n1cnc(C)c1 (centres undefined)	–	Papp B→A [7]: 13 ×10⁻⁶ cm/s; Kp [6]: 0.12; Papp A→B [8]: 36 ×10⁻⁶ cm/s
< 1	109	39.8	8	COc1cc(Nc2nc3n(n2)CCC(=O)N3Cc2ccccc2C)ccc1-c1cnnc(C)c1	33000	Papp B→A [7]: 6 ×10⁻⁶ cm/s; Kp [6]: 0.07; Papp A→B [8]: 14 ×10⁻⁶ cm/s

solubility ([1]; read-out: solubility) [µM]	CLH [2] [µL/min]	IC50 [3] [nM]	pIC50 [4]	SMILES	IC50 [5] [nM]	also measured
< 1	22	–	7.4	COc1cc(Nc2nc3n(n2)CCC(=O)N3Cc2ccccc2Cl)ccc1-n1cnc(C)n1	33000	–
4 (≈ 1.83 µg/mL)	101	50.1	–	COc1cc(Nc2nc3n(n2)C(C)CC(=O)N3CC2CC(F)(F)C2)ccc1-n1cnc(C)c1 (centres undefined)	4400	Papp B→A [7]: 19 ×10⁻⁶ cm/s; Kp [6]: 0.08; Papp A→B [8]: 50 ×10⁻⁶ cm/s
–	–	–	7.2	COc1nc(Nc2nc3n(n2)CCCC3c2ccc(F)cc2)ccc1-n1cnc(C)c1 (centres undefined)	–	–
110 (≈ 47.5 µg/mL)	37	79.4	7.8	COc1cc(Nc2nc3n(n2)CCC(O)N3Cc2ccccc2)ccc1-n1cnc(C)c1 (centres undefined)	–	permeability [7]: 34 ×10⁻⁶ cm/s; Kp [6]: 0.01; permeability [8]: 12 ×10⁻⁶ cm/s
42 (≈ 18.4 µg/mL)	21	–	–	COc1cc(Nc2nc3n(n2)C(C2CC2)CCN3CC(C)(C)O)ccc1-n1cnc(C)c1 (stereo in doubt; 42B)	33000	pIC50 [3]: 6.9
< 1	56	79.4	7.5	COc1cc(Nc2nc3n(n2)CCC(=O)N3Cc2ccccc2C)ccc1-c1ccnnc1	33000	Papp B→A [7]: 22 ×10⁻⁶ cm/s; Kp [6]: 0.11; Papp A→B [8]: 18 ×10⁻⁶ cm/s
–	–	–	6.8	COc1cc(Nc2nc3n(n2)CCCC3c2ccc(F)cc2)ccc1-c1nc(C)no1 (centres undefined)	–	–
–	37	–	–	COc1cc(Nc2nc3n(n2)C(C2CC2)CCN3CC(C)(C)O)ccc1-n1cnc(C)c1 (stereo in doubt; 42A) [listing 1 of 2 here]	–	Cmax [9]: 3.8 µM; solubility [1]: 63 µM (≈ 27.6 µg/mL); Tmax [10]: 30 min; half-life [11]: 60 min; pIC50 [3]: 7.5; clearance [12]: 25 mL/min/kg; bioavailability [13]: 91%; half-life [14]: 54 min; AUC/dose [15]: 0.61 kg·h/L; Vd [16]: 1.4 L/kg; AUC/dose [17]: 0.67 kg·h/L
< 1	30	79.4	7.9	COc1cc(Nc2nc3n(n2)CCC(=O)N3Cc2ccccc2)ccc1-n1cnc(C)c1	5700	Papp B→A [7]: 12 ×10⁻⁶ cm/s; Kp [6]: 0.24; Papp A→B [8]: 36 ×10⁻⁶ cm/s
–	–	–	–	COc1cc(Nc2nc3n(n2)C(C2CC2)CCN3CC(C)(C)O)ccc1-n1cnc(C)c1 (stereo in doubt; 42A) [listing 2 of 2 here]	–	inhibition [18]: Active; inhibition [19]: Active; inhibition [20]: Active; Activity [21]: inactive; inhibition [22]: Active; inhibition [23]: Active
69 (≈ 31.2 µg/mL)	26	100	–	COc1cc(Nc2nc3n(n2)C(C2CC2)CCN3CCC(C)(C)O)ccc1-n1cnc(C)c1 (centres undefined)	16000	–
330 (≈ 136 µg/mL)	33	316	6.5	COc1cc(Nc2nc3n(n2)C(C)CCN3CC(C)(C)O)ccc1-n1cnc(C)c1 (centres undefined)	33000	–
< 1	88	15.8	–	COc1cc(Nc2nc3n(n2)C(C2CC2)CC(=O)N3Cc2cc(F)ccc2F)ccc1-n1cnc(C)c1 (centres undefined)	33000	Kp [6]: 0.11
2 (≈ 0.887 µg/mL)	84	50.1	–	COc1cc(Nc2nc3n(n2)CC(C)C(=O)N3Cc2ccccc2)ccc1-n1cnc(C)c1 (centres undefined)	5600	–
< 1	94	–	7.2	COc1cc(Nc2nc3n(n2)CCC(=O)N3Cc2ccccc2C)ccc1-c1cnc(C)nc1	11000	–
–	–	100	7.7	COc1cc(Nc2nc3n(n2)CCCC3c2ccc(F)cc2)ccc1-c1cnnc(C)c1 (centres undefined)	–	–
–	–	–	–	COc1cc(Nc2nc3n(n2)C(C)CC(=O)N3Cc2ccccc2)ccc1-n1cnc(C)c1 (stereo in doubt; 19B)	–	inhibition [18]: inactive; inhibition [19]: inactive; inhibition [20]: Active; inhibition [22]: inactive; Activity [24]: inactive; inhibition [23]: inactive
17 (≈ 6.69 µg/mL)	105	79.4	7.4	COc1cc(Nc2nc3n(n2)CCCN3CCC2CC2)ccc1-n1cnc(C)c1	6200	–
230 (≈ 109 µg/mL)	39	25.1	–	COc1cc(Nc2nc3n(n2)C(c2ccccc2)CCN3CC(C)(C)O)ccc1-n1cnc(C)c1 (centres undefined)	26000	Papp B→A [7]: 19 ×10⁻⁶ cm/s; Kp [6]: 0.01; Papp A→B [8]: 35 ×10⁻⁶ cm/s
8 (≈ 3.44 µg/mL)	16	794	7	COc1cc(Nc2nc3n(n2)CCC(=O)N3Cc2ccccc2)ccc1-n1cnc(C)n1	17000	–
